Measured values published in the supplement of paper PMC13380429.

Columns and labels:
Conditions in all cases: 72 h
[1] = system: Vero E6; assay: drug sensitivity score (DSS) for viability; higher = more toxic; extreme values may be limits of the assay
[2] = system: HepG2; assay: as above
[3] = system: Calu-3; assay: as above
[4] = system: Caco-2; assay: as above
[5] = system: U2OS; assay: as above
[6] = system: Vero E6; assay: relative viability EC50 (midpoint between 100% and the lowest measured viability); higher = less toxic
[7] = system: Calu-3; assay: as above
[8] = system: Caco-2; assay: as above
[9] = system: U2OS; assay: as above
[10] = system: Vero E6; assay: cell viability relative to DMSO; higher = less toxic
[11] = system: HepG2; assay: as above
[12] = system: Calu-3; assay: as above
[13] = system: Caco-2; assay: as above
[14] = system: U2OS; assay: as above

Row | Compound | drug sensitivity score [1] | drug sensitivity score [2] | drug sensitivity score [3] | drug sensitivity score [4] | drug sensitivity score [5] | relative viability EC50 [6] [µM] | relative viability EC50 [7] [µM] | relative viability EC50 [8] [µM] | relative viability EC50 [9] [µM] | cell viability ([10]; 1 nM) [%] | cell viability ([10]; 10 nM) [%] | cell viability ([10]; 100 nM) [%] | cell viability ([10]; 1000 nM) [%] | cell viability ([10]; 10000 nM) [%] | cell viability ([11]; 1 nM) [%] | cell viability ([11]; 10 nM) [%] | cell viability ([11]; 100 nM) [%] | cell viability ([11]; 1000 nM) [%] | cell viability ([11]; 10000 nM) [%] | cell viability ([12]; 1 nM) [%] | cell viability ([12]; 10 nM) [%] | cell viability ([12]; 100 nM) [%] | cell viability ([12]; 1000 nM) [%] | cell viability ([12]; 10000 nM) [%] | cell viability ([13]; 1 nM) [%] | cell viability ([13]; 10 nM) [%] | cell viability ([13]; 100 nM) [%] | cell viability ([13]; 1000 nM) [%] | cell viability ([13]; 10000 nM) [%] | cell viability ([14]; 1 nM) [%] | cell viability ([14]; 10 nM) [%] | cell viability ([14]; 100 nM) [%] | cell viability ([14]; 1000 nM) [%] | cell viability ([14]; 10000 nM) [%]
1 | Nc1ncn([C@H]2C[C@H](O)[C@@H](CO)O2)c(=O)n1 [decitabine] | 0 | 6.6 | 0 | 1.7 | 0 | > 10 | > 10 | > 10 | > 10 | 103 | 102 | 95.1 | 93 | 93.2 | 95.8 | 98.6 | 82.6 | 71.9 | 69.8 | 109 | 105 | 101 | 107 | 93.5 | 97.2 | 88.3 | 82.2 | 89.4 | 88.4 | 102 | 102 | 99.9 | 100 | 101
2 | C[C@]12C=CC(=O)N[C@@H]1CC[C@@H]1[C@@H]2CC[C@]2(C)[C@@H](C(=O)Nc3cc(C(F)(F)F)ccc3C(F)(F)F)CC[C@@H]12 [dutasteride] | – | – | 0 | 0 | – | – | > 10 | > 10 | – | – | – | – | – | – | – | – | – | – | – | 111 | 99 | 98.2 | 105 | 106 | 111 | 93 | 105 | 97.4 | 104 | – | – | – | – | –
3 | FC(F)OC(F)(F)C(F)Cl (centres undefined) [enflurane] | 0 | – | 0 | 0 | – | > 10 | > 10 | > 10 | – | 94.7 | 103 | 98.4 | 104 | 103 | – | – | – | – | – | 85.1 | 94.2 | 85.6 | 101 | 103 | 96.9 | 104 | 98.3 | 103 | 107 | – | – | – | – | –
4 | O=C1OC2(c3ccccc31)c1cc(I)c(O)c(I)c1Oc1c2cc(I)c(O)c1I [erythrosine] | 3.7 | 2.2 | 4.4 | 3.6 | 3.9 | – | – | – | – | 87.3 | 96.4 | 98.7 | 81.6 | 64.5 | 104 | 109 | 97.6 | 103 | 53.4 | 102 | 104 | 113 | 86.6 | 53.6 | 99.2 | 98.7 | 102 | 93.8 | 51.9 | 94.6 | 91.7 | 97 | 88.7 | 57.3
